Columns and labels:
CDK6/cyclinD3 = target: T1, CDK6/cyclinD3 (Homo sapiens, UniProt Q00534); assay: CDK activity assay with p33 ATP, CDK6/cyclinD3; assay type: biochemical; settings: 1 μM ATP; read-out: CDK6/cyclinD IC50
T1 construct: N-terminal, 6His-tagged full-length human cdk6 (MW=38 kDa); 6His (N); made in house; host or cells: Sf21 cells
Procedure: CDK6/cyclinD3 (Accession Number for CDK6; GenBank X66365, for Cyclin D3; EMBL M90814):
N-terminal, 6His-tagged full-length human cdk6 (MW=38 kDa) complexed with N-terminal GST-tagged full-length human cyclin D3 (MW=59 kDa) were expressed in Sf21 cells. Recombinant protein complex was purified using glutathione-agarose and activated with CAK, and repurified with Ni2+/NTA-agarose column. Purity was measured to be at least 68%. Specific Activity was measured to be 39 U/mg, where one unit of cdk6/cyclinD3 activity is defined as 1 nmol phosphate incorporated into 0.1 mg/ml histone H1 per minute at 30° C. with a final ATP concentration of 100 μM. Enzyme was stored at concentration of 0.1 mg/ml in 50 mM Tris-HCl, pH 7.5, 270 mM sucrose, 150 mM NaCl, 1 mM benzamidine, 0.2 mM PMSF, 0.1% 2-mercaptoethanol, 0.1 mM EGTA, 0.03% Brij 35.

CDK9/cyclinT1 = target: T2, CDK9/cyclinT1 (Homo sapiens, UniProt P50750); assay: CDK activity assay with p33 ATP, CDK9/cyclinT1; assay type: biochemical; settings: 1 μM ATP
T2 construct: C-terminal 6His-tagged, full-length recombinant, human cdk9 (MW=44 kDa); 6His (C); made in house; host or cells: Sf21 insect cells (baculovirus)
T2 sequence (P50750 whole entry): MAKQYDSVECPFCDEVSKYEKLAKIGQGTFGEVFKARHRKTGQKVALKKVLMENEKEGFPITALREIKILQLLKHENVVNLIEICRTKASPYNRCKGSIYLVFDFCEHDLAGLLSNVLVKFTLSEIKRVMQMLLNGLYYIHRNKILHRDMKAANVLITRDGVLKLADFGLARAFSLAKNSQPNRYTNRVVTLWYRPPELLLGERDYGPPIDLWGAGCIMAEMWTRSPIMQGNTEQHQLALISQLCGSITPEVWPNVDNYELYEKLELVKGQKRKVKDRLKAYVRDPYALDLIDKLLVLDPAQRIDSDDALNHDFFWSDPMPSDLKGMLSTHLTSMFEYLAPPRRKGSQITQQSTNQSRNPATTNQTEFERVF
T2 sequence (O60563 whole entry partner): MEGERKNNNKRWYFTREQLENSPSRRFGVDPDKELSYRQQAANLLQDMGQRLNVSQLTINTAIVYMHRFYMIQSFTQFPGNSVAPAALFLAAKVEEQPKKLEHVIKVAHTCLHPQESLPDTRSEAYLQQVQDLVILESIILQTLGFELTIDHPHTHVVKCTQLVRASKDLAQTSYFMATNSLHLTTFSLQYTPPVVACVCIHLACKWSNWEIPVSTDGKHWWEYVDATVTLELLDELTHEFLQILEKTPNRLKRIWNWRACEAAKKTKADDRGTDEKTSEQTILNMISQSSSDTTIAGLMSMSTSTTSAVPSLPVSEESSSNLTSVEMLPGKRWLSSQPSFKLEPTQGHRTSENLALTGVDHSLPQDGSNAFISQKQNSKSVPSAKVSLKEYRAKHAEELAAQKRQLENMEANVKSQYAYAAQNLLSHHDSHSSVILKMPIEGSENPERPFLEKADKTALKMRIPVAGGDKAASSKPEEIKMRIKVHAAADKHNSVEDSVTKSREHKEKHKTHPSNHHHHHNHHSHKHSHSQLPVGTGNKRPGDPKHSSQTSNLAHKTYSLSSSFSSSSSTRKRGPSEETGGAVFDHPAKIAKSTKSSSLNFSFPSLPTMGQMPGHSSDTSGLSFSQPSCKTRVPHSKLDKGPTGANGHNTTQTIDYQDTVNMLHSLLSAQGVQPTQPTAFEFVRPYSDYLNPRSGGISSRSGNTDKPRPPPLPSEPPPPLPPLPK
Procedure: CDK9/cyclinT1 (Accession Number for CDK9; GenBank AF517840, for Cyclin T1; GenBank NM_001240)
C-terminal 6His-tagged, full-length recombinant, human cdk9 (MW=44 kDa) were co-expressed with untagged, full-length human cyclin T1 (MW=80.79 kDa) with baculovirus system in Sf21 insect cells. Recombinant protein complex was purified with Ni^2+/NTA agarose. Purity of recombinant protein was measured to be 50% by SDS-PAGE and Coomassie blue staining Specific Activity of purified enzyme was measured to be186 U/mg, where one unit of cdk9/cyclin T1 activity is defined as 1 nmol phosphate incorporated into 100 μM PDKtide ([…]) (SEQ ID NO. 3), per minute at 30° C. with a final ATP concentration of 100 μM. Enzyme was stored at a concentration of 0.1 mg/ml in 50 mM Tris-HCl, pH 7.5, 300 mM NaCl, 0.1 mM EGTA, 0.03% Brij-35, 270 mM sucrose, 1 mM benzamidine, 0.1% 2-mercaptoethanol, 0.2 mM PMSF.
PDKtide (Substrate for CDK9):
Synthetic peptide substrate with sequence of [[…]] (SEQ ID NO. 3), MW=4771.4.

CDK3/cyclinE = target: T3, CDK3/cyclinE (Homo sapiens, UniProt Q00526); assay: CDK activity assay with p33 ATP, CDK3/cyclinE; assay type: biochemical; settings: 1 μM ATP
T3 construct: C-terminal 6His-tagged recombinant human full-length cdk3 (MW=36 kDa); 6His (C); made in house; host or cells: Sf21 insect cells (baculovirus)
T3 sequence (Q00526 whole entry): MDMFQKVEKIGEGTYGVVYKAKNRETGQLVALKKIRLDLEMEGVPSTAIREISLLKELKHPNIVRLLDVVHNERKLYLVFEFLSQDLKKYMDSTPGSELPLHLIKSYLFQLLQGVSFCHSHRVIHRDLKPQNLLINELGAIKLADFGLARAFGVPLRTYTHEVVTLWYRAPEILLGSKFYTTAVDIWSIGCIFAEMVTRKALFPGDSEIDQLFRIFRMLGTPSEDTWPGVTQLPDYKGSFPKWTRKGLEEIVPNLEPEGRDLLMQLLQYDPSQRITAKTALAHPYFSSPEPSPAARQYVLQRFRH
T3 sequence (P24864 whole entry partner): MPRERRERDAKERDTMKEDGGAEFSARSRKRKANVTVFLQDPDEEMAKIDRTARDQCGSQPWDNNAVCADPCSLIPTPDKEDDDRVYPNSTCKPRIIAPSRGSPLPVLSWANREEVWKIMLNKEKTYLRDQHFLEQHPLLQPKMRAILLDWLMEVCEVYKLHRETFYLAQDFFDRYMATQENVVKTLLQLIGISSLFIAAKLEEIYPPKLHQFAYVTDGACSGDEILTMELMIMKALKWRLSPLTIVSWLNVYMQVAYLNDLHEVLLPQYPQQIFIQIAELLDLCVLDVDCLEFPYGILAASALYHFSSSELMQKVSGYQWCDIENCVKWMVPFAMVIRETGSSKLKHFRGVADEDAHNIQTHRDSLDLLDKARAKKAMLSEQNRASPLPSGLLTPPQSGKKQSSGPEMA
Procedure: CDK3/cyclinE (Accession Number for CDK3; GenBank X66357, for Cyclin E; GenBank NM_001238):
C-terminal 6His-tagged recombinant human full-length cdk3 (MW=36 kDa) were coexpressed with N-terminal GST-tagged recombinant human full-length cyclin E (MW=74 kDa) with baculovirus system in Sf21 insect cells. Recombinant protein complex was purified using Ni2+/NTA agarose and with purity to be 66% by SDS PAGE and Coomassie blue staining. Specific Activity of recombinant enzyme was measured to be 861 U/mg, where one unit of cdk3/cyclinE activity is defined as 1 nmol phosphate incorporated into 0.1 mg/ml histone H1 per minute at 30° C. with a final ATP concentration of […]. Enzyme was stored at a concentration of 0.1 mg/ml in 50 mM Tris/HCl pH7.5, 150 mM NaCl 0.1 mM EGTA, 0.03% Brij 35, 270 mM sucrose, 1 mM benzamidine, 0.2 mM PMSF, 0.1% 2-mercaptoethanol.

[1] = test system: HL60 AML xenograft tumors; assay: Anti-tumor activity in the HM60 AML nude mouse xenograft model; assay type: in vivo; settings: for tumor growth (in words): compound 8 30 mg/Kg, compound 9 60 mg/Kg daily in 30% CAPTISOL
Procedure: FIG. 2 is a graph of tumor size versus time for mice bearing HL60 AML xenograft tumors receiving 30 mg/Kg compound 8 in 30% CAPTISOL iv daily, 60 mg/Kg compound 9 in 30% CAPTISOL iv daily or vehicle only.
(d) An In Vivo Study of the Anti-Tumor Activity of Compounds 8 and 9 in 30% CAPTISOL in the HM60 AML Nude Mouse Xenograft Model
Mice were divided into three groups of 4 mice each. Tumor volumes at the commencement of treatment were 157±56 mm^3. One group of mice received 30 mg/Kg compound 8 daily in 30% CAPTISOL, while a second group received 60 mg/Kg compound 9 in 30% CAPTISOL daily. The third group received an equivalent volume of vehicle daily.

[2] = test system: OPM2 Multiple Myeloma xenograft tumors; assay: Anti-tumor activity in the OPM2 Multiple Myeloma nude mouse xenograft model; assay type: in vivo; settings: 60 mg/Kg iv daily in 30% CAPTISOL
Procedure: FIG. 3 is a graph of tumor size versus time for mice bearing OPM2 Multiple Myeloma xenograft tumors receiving either 60 mg/Kg compound 9 in 30% CAPTISOL iv daily or vehicle only.
(e) An In Vivo Study of the Anti-Tumor Activity of Compound 9 in 30% CAPTISOL in the OPM2 Multiple Myeloma Nude Mouse Xenograft Model
Mice were divided into two groups of 7 mice each. Treatment began when the tumor sizes were 276±46 mm^3. Compound 9 in 30% CAPTISOL was administered to the animals daily at 60 mg/Kg iv.

[3] = test system: A375 Melanoma xenograft tumors; assay: Anti-tumor activity in the A375 Melanoma nude mouse xenograft model; assay type: in vivo; settings: 60 mg/Kg ip daily in 30% CAPTISOL
Procedure: FIG. 1 is a graph of tumor size versus time for mice bearing A375 Melanoma xenograft tumors receiving either 60 mg/Kg compound 8 in 30% CAPTISOL iv daily or vehicle only.
(c) An In Vivo Study of the Anti-Tumor Activity of Compound 8 in 30% CAPTISOL in the A375 Melanoma Nude Mouse Xenograft Model
Mice were divided into two groups of 5 to 6 mice each. Tumor volumes at the commencement of treatment were 560±230 mm^3. Compound 8 in 30% CAPTISOL was administered daily (60 mg/Kg ip) to one group of animals, while the second group of animals received an equal volume of vehicle.

T1 sequence (Q00534 whole entry): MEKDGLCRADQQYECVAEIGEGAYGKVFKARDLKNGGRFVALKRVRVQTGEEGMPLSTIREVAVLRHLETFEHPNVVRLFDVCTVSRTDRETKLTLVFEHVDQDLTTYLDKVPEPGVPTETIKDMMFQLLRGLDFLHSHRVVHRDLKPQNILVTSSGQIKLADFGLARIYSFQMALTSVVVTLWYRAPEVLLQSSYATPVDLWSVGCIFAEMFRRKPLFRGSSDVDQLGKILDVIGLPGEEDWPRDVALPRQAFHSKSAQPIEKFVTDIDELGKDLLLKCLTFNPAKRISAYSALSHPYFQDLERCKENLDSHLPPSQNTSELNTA
T1 sequence (P30281 whole entry partner): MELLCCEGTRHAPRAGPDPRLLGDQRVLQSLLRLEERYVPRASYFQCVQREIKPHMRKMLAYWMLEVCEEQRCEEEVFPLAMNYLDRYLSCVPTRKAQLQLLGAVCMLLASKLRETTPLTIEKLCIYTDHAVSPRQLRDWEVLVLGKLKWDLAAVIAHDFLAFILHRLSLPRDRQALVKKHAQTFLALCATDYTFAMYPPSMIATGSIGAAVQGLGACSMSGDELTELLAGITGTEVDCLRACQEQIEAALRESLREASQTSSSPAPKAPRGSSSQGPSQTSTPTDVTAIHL

Row | SMILES | IC50 (CDK6/cyclinD3) [µM] | IC50 (CDK9/cyclinT1) [µM] | IC50 (CDK3/cyclinE) [µM] | decrease in tumor size ([1]; 60 mg/Kg daily in 30% CAPTISOL, after 10 days, vehicle about 230% change) | tumor growth (in words) [1] | tumor growth (in words) [2] | increase in tumor size ([2]; after 10 days, vehicle about 450% increase) [%] | melting point [°C] | tumor growth (in words) [3] | increase in tumor size ([3]; after 10 days, vehicle about 130% increase) [%] | increase in tumor size ([1]; 30 mg/Kg daily in 30% CAPTISOL, after 10 days, vehicle about 230% change) [%]
1 | CC(C)(C)c1cnc(CSc2cnc(NC(=O)Cc3ccc(OCCCC(=O)NO)cc3)s2)o1 [Compound 9, 4-(4-(2-(5-((5-tert-butyloxazol-2-yl)methylthio)thiazol-2-ylamino)-2-oxoethyl)phenoxy)-N-hydroxybutanamide] | 0.1 to 1 | < 0.1 | < 0.1 | about 50% | able to attenuate tumor growth | able to attenuate tumor growth | ~50 | – | – | – | –
2 | CC(C)(C)c1cnc(CSc2cnc(NC(=O)C3CCN(c4ncc(C(=O)NO)cn4)CC3)s2)o1 [Compound 20, 2-(4-(5-((5-tert-butyloxazol-2-yl)methylthio)thiazol-2-ylcarbamoyl)piperidin-1-yl)-N-hydroxypyrimidine-5-carboxamide] | 1 to 10 | < 0.1 | < 0.1 | – | – | – | – | 181 to 183 | – | – | –
3 | CC(C)(C)c1cnc(CSc2cnc(NC(=O)CCCCCCC(=O)NO)s2)o1 [Compound 8, N^1-(5-((5-tert-butyloxazol-2-yl)methylthio)thiazol-2-yl)-N^8-hydroxyoctanediamide] | 0.1 to 1 | < 0.1 | < 0.1 | – | able to attenuate tumor growth | – | – | – | able to attenuate tumor growth | 50 | ~90

— US8563741B2, “CDK inhibitors containing a zinc binding moiety” (Curis, Inc., priority 2007, dated 2013)
